Test results from ChEMBL document CHEMBL3885861, “Open TG-GATES”.

Species on record: Rattus norvegicus
Assay: Open TG-GATES - Regimen: Single
Assay type: toxicity, organism-based, Sprague-Dawley
Parameters: regimen Single, gender Male, age 6 weeks
Details: in vivo, po, 30 mg/kg, route gavage, dose level Low; for APTT / Bas / Eos / Fbg / Hb / Ht / Lym / MCH / MCHC / MCV / Mono / Neu / PT / Plat / RBC / Ret / WBC: tissue Blood; for KIDNEY_L / KIDNEY_R / KIDNEY_TOTAL: tissue Kidney; for LIVER: tissue Liver; for A/G / ALP / ALT / AST / BUN / CRE / Ca / Cl / DBIL / GLC / IP / K / LDH / Na / PL / RALB / TBIL / TC / TG / TP / gamma-GTP: tissue Plasma

ClC(Cl)(Cl)Cl [CARBON TETRACHLORIDE]
TERMINAL_BW (3 h): 206.6 g
APTT (3 h): 16.5 s
Bas (3 h): 0%
Eos (3 h): 0.8%
Fbg (3 h): 259.6 mg/dL
Hb (3 h): 13 g/dL
Ht (3 h): 37.5%
Lym (3 h): 76.6%
MCH (3 h): 21.2 pg
MCHC (3 h): 34.6%
MCV (3 h): 61.4 fL
Mono (3 h): 3.4%
Neu (3 h): 19%
PT (3 h): 12.3 s
Plat (3 h): 127.9 x10_4/uL
RBC (3 h): 610.8 x10_4/ul
Ret (3 h): 8.6%
WBC (3 h): 95.4 x10_2/uL
KIDNEY_L (3 h): 0.9 g
KIDNEY_R (3 h): 0.9 g
KIDNEY_TOTAL (3 h): 1.9 g
LIVER (3 h): 9.7 g
A/G (3 h): 1.6
ALP (3 h): 1090.2 IU/L
ALT (3 h): 39.6 IU/L
AST (3 h): 67.4 IU/L
BUN (3 h): 11.8 mg/dL
CRE (3 h): 0.4 mg/dL
Ca (3 h): 10.9 mg/dL
Cl (3 h): 104 meq/L
DBIL (3 h): 0.1 mg/dL
GLC (3 h): 192.6 mg/dL
IP (3 h): 9.8 mg/dL
K (3 h): 3.8 meq/L
LDH (3 h): 198.8 IU/L
Na (3 h): 140.2 meq/L
PL (3 h): 169.2 mg/dL
RALB (3 h): 3.4 g/dL
TBIL (3 h): 0.2 mg/dL
TC (3 h): 86 mg/dL
TG (3 h): 81.2 mg/dL
TP (3 h): 5.6 g/dL
gamma-GTP (3 h): 1.4 IU/L
TERMINAL_BW (6 h): 205.6 g
APTT (6 h): 17.9 s
Bas (6 h): 0%
Eos (6 h): 1%
Fbg (6 h): 242 mg/dL
Hb (6 h): 13.1 g/dL
Ht (6 h): 37.4%
Lym (6 h): 72.8%
MCH (6 h): 22 pg
MCHC (6 h): 34.9%
MCV (6 h): 63.1 fL
Mono (6 h): 2.6%
Neu (6 h): 22.8%
PT (6 h): 12.7 s
Plat (6 h): 134.6 x10_4/uL
RBC (6 h): 593.6 x10_4/ul
Ret (6 h): 8.6%
WBC (6 h): 78.1 x10_2/uL
KIDNEY_L (6 h): 0.9 g
KIDNEY_R (6 h): 0.9 g
KIDNEY_TOTAL (6 h): 1.8 g
LIVER (6 h): 9.4 g
A/G (6 h): 1.7
ALP (6 h): 1051 IU/L
ALT (6 h): 29.4 IU/L
AST (6 h): 63.8 IU/L
BUN (6 h): 10.2 mg/dL
CRE (6 h): 0.4 mg/dL
Ca (6 h): 10.6 mg/dL
Cl (6 h): 104.4 meq/L
DBIL (6 h): 0.1 mg/dL
GLC (6 h): 195 mg/dL
IP (6 h): 9.4 mg/dL
K (6 h): 4.1 meq/L
LDH (6 h): 221.2 IU/L
Na (6 h): 139.6 meq/L
PL (6 h): 159 mg/dL
RALB (6 h): 3.5 g/dL
TBIL (6 h): 0.2 mg/dL
TC (6 h): 79 mg/dL
TG (6 h): 91.2 mg/dL
TP (6 h): 5.6 g/dL
gamma-GTP (6 h): 1 IU/L
TERMINAL_BW (9 h): 201.5 g
APTT (9 h): 17.2 s
Bas (9 h): 0%
Eos (9 h): 0.8%
Fbg (9 h): 229.4 mg/dL
Hb (9 h): 12.7 g/dL
Ht (9 h): 36.5%
Lym (9 h): 74%
MCH (9 h): 21.4 pg
MCHC (9 h): 34.8%
MCV (9 h): 61.6 fL
Mono (9 h): 2.2%
Neu (9 h): 22.6%
PT (9 h): 12.5 s
Plat (9 h): 126.6 x10_4/uL
RBC (9 h): 593.2 x10_4/ul
Ret (9 h): 9.1%
WBC (9 h): 76.5 x10_2/uL
KIDNEY_L (9 h): 0.9 g
KIDNEY_R (9 h): 0.9 g
KIDNEY_TOTAL (9 h): 1.8 g
LIVER (9 h): 8.6 g
A/G (9 h): 1.6
ALP (9 h): 1042.2 IU/L
ALT (9 h): 29.8 IU/L
AST (9 h): 58 IU/L
BUN (9 h): 10 mg/dL
CRE (9 h): 0.4 mg/dL
Ca (9 h): 10.4 mg/dL
Cl (9 h): 103.8 meq/L
DBIL (9 h): 0.09 mg/dL
GLC (9 h): 196.8 mg/dL
IP (9 h): 10.6 mg/dL
K (9 h): 3.6 meq/L
LDH (9 h): 174 IU/L
Na (9 h): 140.2 meq/L
PL (9 h): 150.8 mg/dL
RALB (9 h): 3.3 g/dL
TBIL (9 h): 0.2 mg/dL
TC (9 h): 75.8 mg/dL
TG (9 h): 57.2 mg/dL
TP (9 h): 5.4 g/dL
gamma-GTP (9 h): 0.8 IU/L
TERMINAL_BW (24 h): 211.3 g
APTT (24 h): 19.1 s
Bas (24 h): 0%
Eos (24 h): 0.8%
Fbg (24 h): 229.6 mg/dL
Hb (24 h): 13.6 g/dL
Ht (24 h): 38.8%
Lym (24 h): 84.4%
MCH (24 h): 22.4 pg
MCHC (24 h): 35%
MCV (24 h): 64 fL
Mono (24 h): 2.6%
Neu (24 h): 11.6%
PT (24 h): 12.1 s
Plat (24 h): 132.2 x10_4/uL
RBC (24 h): 606.4 x10_4/ul
Ret (24 h): 8%
WBC (24 h): 101.3 x10_2/uL
KIDNEY_L (24 h): 1 g
KIDNEY_R (24 h): 1 g
KIDNEY_TOTAL (24 h): 2 g
LIVER (24 h): 10.4 g
A/G (24 h): 1.6
ALP (24 h): 1115.2 IU/L
ALT (24 h): 42.4 IU/L
AST (24 h): 69.6 IU/L
BUN (24 h): 14.8 mg/dL
CRE (24 h): 0.4 mg/dL
Ca (24 h): 10.7 mg/dL
Cl (24 h): 103.8 meq/L
DBIL (24 h): 0.07 mg/dL
GLC (24 h): 202 mg/dL
IP (24 h): 7.7 mg/dL
K (24 h): 3.8 meq/L
LDH (24 h): 188.8 IU/L
Na (24 h): 140.6 meq/L
PL (24 h): 155.2 mg/dL
RALB (24 h): 3.5 g/dL
TBIL (24 h): 0.1 mg/dL
TC (24 h): 81.2 mg/dL
TG (24 h): 61.8 mg/dL
TP (24 h): 5.7 g/dL
gamma-GTP (24 h): 1.4 IU/L
